Experimental data taken from ChEMBL document CHEMBL4346741, “Synthesis, pharmacological evaluation, and mechanistic study of adefovir mixed phosphonate derivatives bearing cholic acid and l-amino acid moieties for the treatment of HBV” (Bioorg Med Chem, 2019).

Columns and labels:
[1] = system: HK-2; experiment: Induction of apoptosis in human HK2 cells assessed as early apoptotic cells at 25 uM measured after 72 hrs by Annexin V-FITC/propidium iodide staining based flow cytometry (reference value: 8.1%); format: cell-based; settings: hk-2, 72 h
[2] = system: HK-2; experiment: Reduction in mitochondrial membrane potential in human HK2 cells assessed as decrease in red fluorescence at 25 to 100 uM after 72 hrs by JC-1 staining based flow cytometry; format: ADME, cell-based; settings: hk-2, 72 h
[3] = system: HEK293; experiment: Cytotoxicity against human HEK293 cells expressing OAT1 assessed as reduction in cell viability at 1000 uM after 1 hr by MTT assay relative to control; format: ADME, cell-based; settings: hek293, 1 h
[4] = system: HK-2; experiment: Induction of apoptosis in human HK2 cells assessed as induction of cleaved caspase 3 levels at 25 to 100 uM after 72 hrs by Western blot analysis; format: cell-based; settings: hk-2, 72 h
[5] = system: Hepatitis B virus; experiment: Antiviral activity against Hepatitis B virus infected in human HepG2.2.15 cells assessed as inhibition of viral DNA synthesis incubated for 2 days followed by replacement of fresh medium containing compound and measured at day 10 by RT-PCR analysis; format: functional, organism-based
[6] = system: HK-2; experiment: Induction of apoptosis in human HK2 cells assessed as increase in Bax/Bcl2 ratio after 72 hrs by Western blot analysis; format: cell-based; settings: hk-2, 72 h
[7] = Selectivity index, ratio of CC50 for cytotoxicity against human HepG2.2.15 cells to EC50 for HBV infected in human HepG2.2.15 cells; format: toxicity, cell-based; settings: read-out: Ratio CC50/EC50
[8] = system: HK-2; experiment: Induction of apoptosis in human HK2 cells assessed as nuclear pyknosis at 25 to 100 uM measured after 72 hrs by Hoechst 33342 staining based fluorescence assay; format: cell-based; settings: hk-2, 72 h
[9] = system: HK-2; experiment: Cytotoxicity against human HK2 cells assessed as reduction in cell viability at 100 umol/L after 72 hrs by MTT assay relative to control; format: cell-based; settings: hk-2, 72 h, 100 µM
[10] = system: HK-2; experiment: Reduction in mitochondrial membrane potential in human HK2 cells assessed as increase in green fluorescence at 25 to 100 uM after 72 hrs by JC-1 staining based flow cytometry; format: ADME, cell-based; settings: hk-2, 72 h
[11] = system: HK-2; experiment: Induction of apoptosis in human HK2 cells assessed as presence of apoptotic bodies at 25 to 100 uM measured after 72 hrs by Hoechst 33342 staining based fluorescence assay; format: cell-based; settings: hk-2, 72 h
[12] = system: HK-2; experiment: Induction of apoptosis in human HK2 cells assessed as early apoptotic cells at 50 uM measured after 72 hrs by Annexin V-FITC/propidium iodide staining based flow cytometry (reference value: 8.1%); format: cell-based; settings: hk-2, 72 h
[13] = Volume of distribution in Sprague-Dawley rat at 100 mg/kg, po measured up to 24 hrs by LC-MS/MS analysis; format: ADME, organism-based; settings: in vivo
[14] = molecular target: T1, Solute carrier family 22 member 6 (Homo sapiens, UniProt Q4U2R8); experiment: Substrate activity at human OAT1 expressed in HEK293 cells harboring pEGFP assessed as compound uptake measured after 20 mins by UPLC-MS/MS method; format: ADME, cell-based; settings: hek293, 20 min
T1 sequence (Q4U2R8 whole entry): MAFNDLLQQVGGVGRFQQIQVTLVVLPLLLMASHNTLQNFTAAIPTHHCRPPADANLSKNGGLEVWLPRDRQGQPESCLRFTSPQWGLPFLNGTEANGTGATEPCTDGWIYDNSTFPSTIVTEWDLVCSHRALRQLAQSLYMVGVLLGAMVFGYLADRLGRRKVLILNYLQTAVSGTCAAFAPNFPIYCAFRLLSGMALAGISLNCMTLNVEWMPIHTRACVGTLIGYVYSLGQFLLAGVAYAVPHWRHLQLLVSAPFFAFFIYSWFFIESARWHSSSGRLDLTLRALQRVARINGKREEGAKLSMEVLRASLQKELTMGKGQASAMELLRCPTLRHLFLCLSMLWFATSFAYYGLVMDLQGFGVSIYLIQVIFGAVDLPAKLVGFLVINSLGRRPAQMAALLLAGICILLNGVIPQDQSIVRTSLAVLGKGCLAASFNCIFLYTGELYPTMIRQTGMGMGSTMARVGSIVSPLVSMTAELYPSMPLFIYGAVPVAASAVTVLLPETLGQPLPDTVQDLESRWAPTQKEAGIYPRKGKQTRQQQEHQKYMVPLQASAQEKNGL

[15] = system: HK-2; experiment: Induction of apoptosis in human HK2 cells assessed as reduction in Bcl-2 expression at 25 to 100 uM after 72 hrs by Western blot analysis; format: cell-based; settings: hk-2, 72 h
[16] = system: OAT1; experiment: Selectivity ratio, ratio of substrate activity at human OAT1 expressed in HEK293 cells harboring pEGFP assessed as compound uptake to substrate activity in human HEK293 cells harboring pEGFP-N1 empty vector assessed as compound uptake; format: ADME, cell-based
[17] = system: HK-2; experiment: Induction of apoptosis in human HK2 cells assessed as early apoptotic cells at 100 uM measured after 72 hrs by Annexin V-FITC/propidium iodide staining based flow cytometry (reference value: 8.1%); format: cell-based; settings: hk-2, 72 h
[18] = system: HK-2; experiment: Induction of mitochondrial membrane dysfunction in human HK2 cells assessed as reduction in mitochondrial potential at 100 uM after 72 hrs by JC-1 staining based flow cytometry; format: cell-based; settings: hk-2, 72 h
[19] = AUC (0 to t) in Sprague-Dawley rat at 100 mg/kg, po measured up to 24 hrs by LC-MS/MS analysis; format: ADME, organism-based; parameters: dose 100 mg/kg, time < 24 hr, route oral; settings: in vivo
[20] = system: HK-2; experiment: Cytotoxicity against human HK2 cells assessed as reduction in cell viability after 72 hrs by MTT assay; format: cell-based; settings: hk-2, 72 h
[21] = system: HK-2; experiment: Induction of apoptosis in human HK2 cells assessed as increase in Bax level at 25 to 100 uM after 72 hrs by Western blot analysis; format: cell-based; settings: hk-2, 72 h
[22] = molecular target: T1, Solute carrier family 22 member 6; experiment: Inhibition of human OAT1 expressed in HEK293 cells assessed as P-amino hippuric acid uptake inhibition incubated for 10 mins by UPLC-MS/MS method; format: ADME, cell-based
[23] = Drug distribution in mouse kidney at 5.47 mg/kg, po measured up to 24 hrs by LC-MS/MS analysis; format: ADME, organism-based; settings: in vivo
[24] = system: HK-2; experiment: Induction of apoptosis in human HK2 cells assessed as dense staining at 25 to 100 uM measured after 72 hrs by Hoechst 33342 staining based fluorescence assay; format: cell-based; settings: hk-2, 72 h
[25] = system: HepG2 2.2.15; experiment: Cytotoxicity against human HepG2.2.15 cells assessed as reduction in cell viability incubated for 12 hrs followed by replacement of fresh medium containing compound and measured after 2 days by CCK-8 assay; format: functional
[26] = system: HEK293; experiment: Cytotoxicity against human HEK293 cells harboring pEGFP-N1 empty vector assessed as reduction in cell viability after 1 hr by MTT assay; format: cell-based; settings: hek293, 1 h
[27] = Drug distribution in mouse liver at 5.47 mg/kg, po measured at 30 mins by LC-MS/MS analysis; format: ADME, organism-based; settings: read-out: Drug uptake
[28] = Potency index, ratio of ADV drug concentration to compound concentration in mouse liver measured at 60 mins; format: ADME, tissue-based; settings: in vivo, 1 h
[29] = Drug distribution in mouse liver at 5.47 mg/kg, po measured at 24 hrs by LC-MS/MS analysis; format: ADME, organism-based; settings: read-out: Drug uptake
[30] = Drug distribution in mouse liver at 5.47 mg/kg, po measured at 6 hrs by LC-MS/MS analysis; format: ADME, organism-based; settings: read-out: Drug uptake
[31] = Potency index, ratio of ADV drug concentration to compound concentration in mouse liver measured at 3 hrs; format: ADME, tissue-based; settings: in vivo
[32] = Potency index, ratio of ADV drug concentration to compound concentration in mouse liver measured at 30 mins; format: ADME, tissue-based; settings: in vivo, 0.5 h
[33] = system: HEK293; experiment: Substrate activity in human HEK293 cells harboring pEGFP-N1 empty vector assessed as compound uptake measured at 5 to 40 mins by UPLC-MS/MS method; format: ADME, cell-based
[34] = system: HK-2; experiment: Cytotoxicity against human HK2 cells assessed as cell viability at 25 to 100 uM after 72 hrs by MTT assay relative to control; format: cell-based; settings: hk-2, 72 h
[35] = system: HK-2; experiment: Induction of mitochondrial membrane dysfunction in human HK2 cells assessed as effect mitochondrial membrane potential at 100 uM after 72 hrs by JC-1 staining based flow cytometry; format: cell-based; settings: hk-2, 72 h
[36] = system: HK-2; experiment: Nephrotoxicity in human HK2 cells assessed as decrease in cell apoptosis at 25 to 100 uM measured after 72 hrs by Hoechst 33342 staining based fluorescence assay relative to ADV; format: toxicity; parameters: scale not given: the % may be the effect or the level left; settings: hk-2, 72 h
[37] = Potency index, ratio of ADV drug concentration to compound concentration in mouse liver measured at 6 hrs; format: ADME, tissue-based; settings: in vivo
[38] = system: HEK293; experiment: Cytotoxicity against human HEK293 cells expressing OAT1 assessed as reduction in cell viability after 1 hr by MTT assay; format: ADME, cell-based; settings: hek293, 1 h
[39] = Drug distribution in mouse liver at 5.47 mg/kg, po measured at 60 mins by LC-MS/MS analysis; format: ADME, organism-based; settings: read-out: Drug uptake
[40] = Potency index, ratio of ADV drug concentration to compound concentration in mouse liver measured at 24 hrs; format: ADME, tissue-based; settings: in vivo
[41] = system: HK-2; experiment: Induction of apoptosis in human HK2 cells assessed as increase in Bax/Bcl2 ratio at 25 to 100 uM after 72 hrs by Western blot analysis; format: cell-based; settings: hk-2, 72 h
[42] = molecular target: T2, OAT1 (solute carrier family 22 member 6) (Homo sapiens, UniProt Q4U2R8); experiment: Safety index, ratio of Adefovir dipivoxil IC50 to compound IC50 for human OAT1 expressed in HEK293 cells; format: ADME, cell-based; settings: read-out: Ratio IC50
T2 sequence (Q4U2R8 whole entry): T1 sequence (Q4U2R8 whole entry)

[43] = Drug distribution in mouse liver at 5.47 mg/kg, po measured at 3 hrs by LC-MS/MS analysis; format: ADME, organism-based; settings: read-out: Drug uptake

With `CC(C)(C)C(=O)OCOP(=O)(COCCn1cnc2c(N)ncnc21)OCOC(=O)C(C)(C)C` [ADEFOVIR DIPIVOXIL] the Activity [1] was 16.8%, the Activity [2] was “Toxic” and the Activity [3] was 47.16%. For the same compound, the Activity [4] was “Toxic”, the EC50 [5] was 3.09 µM and the Activity [6] was “Dose-dependent effect”. The selectivity ratio [7] was 142, the Activity [8] was “Toxic” and the Activity [9] was 61.01%. For the same compound, the Activity [10] was “Toxic”, the Activity [11] was “Toxic” and the Activity [12] was 18.9%. The Vd [13] was 153.128 L/kg, the Activity [14] was 400 pmol/min/mg and the Activity [15] was “Toxic”. For the same compound, the uptake ratio [16] was 7.5, the Activity [17] was 43.3% and the Activity [18] was “Toxic”. The AUCt [19] was 1655.225 µg/L/h, the Activity [20] was “Dose-dependent effect” and the Activity [21] was “Toxic”. For the same compound, the IC50 [22] was 13.5 µM, the Drug uptake [23] was “Active” and the Activity [24] was “Toxic”. For the same compound, the CC50 [25] was 439 µM.

For `CC(C)C[C@@H](N)C(=O)OCCCOP(=O)(COCCn1cnc2c(N)ncnc21)OCCCOC(=O)CC[C@@H](C)[C@H]1CC[C@H]2[C@@H]3[C@@H](O)C[C@@H]4C[C@H](O)CC[C@]4(C)[C@H]3CC[C@]12C` (some centres not stated), the Activity [1] was 9.7%, the Activity [26] was “Non-Toxic” and the concentration at 0.5 h [27] was 305 ng/g. The Activity [4] was “Non-Toxic”, the Ratio [28] was 6.5 and the EC50 [5] was 0.42 µM. For the same compound, the selectivity ratio [7] was 1060, the Activity [8] was “Non-Toxic” and the concentration at 24 h [29] was 695 ng/g. The concentration at 6 h [30] was 721 ng/g, the Activity [11] was “Non-Toxic” and the Activity [12] was 6.1%. The Vd [13] was 78.716 L/kg, the Ratio [31] was 3.4 and the Ratio [32] was 4.2. It also gave an Activity [14] of less than 60 pmol/min/mg, an Activity [33] of less than 60 pmol/min/mg and an Activity [17] of 5.9%. For the same compound, the Activity [34] was “Non-Toxic”, the Activity [35] was “Non-Toxic” and the AUCt [19] was 4645.705 µg/L/h. The Activity [36] was 37.4%, the Ratio [37] was 4.8 and the Activity [38] was “Non-Toxic”. The IC50 [22] was 286 µM, the concentration at 1 h [39] was 1070 ng/g and the Ratio [40] was 8.8. For the same compound, the Activity [24] was “Non-Toxic”, the Activity [41] was “Non-Toxic” and the selectivity ratio [42] was 21. For the same compound, the concentration at 3 h [43] was 1160 ng/g and the CC50 [25] was 446 µM.
